Laboratory results from patent US11590139B2, “Substituted aminopurine compounds, compositions thereof, and methods of treatment therewith” (Signal Pharmaceuticals, LLC, priority 2014, dated 2023).
Blank lines part the entries; values can stand above or below the compound they belong to.

Tested on: Lox-IMVI melanoma cell line
Assay: Lox-IMVI anti-proliferative assay (growth inhibition, Cell Titer-Glo)
Type: cell-based, human
Conditions: Homo sapiens; IC50 activity level in the cell-based Lox-IMVI anti-proliferative assay; read-out: Activity
Summary of the method: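 Viability read by ATP luminescence (Cell Titer-Glo) at t0 and after 72 h at 37 °C, 5% CO2, with normalisation to DMSO-treated cells. Compound tested at 0.5 nM–10 μM in 3-fold, 10-point series (0.2% DMSO final) on Lox-IMVI in RPMI+10% FBS; IC50 by 4-parameter sigmoidal fit.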

SMILES: NC(=O)[C@H]1CC[C@@H](n2c(Nc3c(F)cccc3F)nc3cnc(N[C@@H]4CCC[C@H](O)C4)nc32)CC1 [Example 348, (1S,4s)-4-(8-(2,6-difluorophenylamino)-2-((1R,3S)-3-hydroxycyclohexylamino)-9H-purin-9-yl)cyclohexanecarboxamide]
IC50: > 1000 nM

SMILES: NC(=O)[C@H]1CC[C@@H](n2c(Nc3c(Cl)cccc3Cl)nc3cnc(N[C@@H]4CCC[C@H](O)C4)nc32)CC1 [Example 349, (1S,4s)-4-(8-(2,6-dichlorophenylamino)-2-((1R,3S)-3-hydroxycyclohexylamino)-9H-purin-9-yl)cyclohexanecarboxamide]
IC50: > 1000 nM

SMILES: NC(=O)[C@H]1CC[C@@H](n2c(Nc3c(F)cc(F)cc3Cl)nc3cnc(N[C@@H]4CCC[C@H](O)C4)nc32)CC1 [Example 351, (1S,4s)-4-(8-(2-chloro-4,6-difluorophenylamino)-2-((1R,3S)-3-hydroxycyclohexylamino)-9H-purin-9-yl)cyclohexanecarboxamide]
IC50: > 1000 nM

SMILES: C[C@@H]1CC[C@@H](Nc2ncc3nc(Nc4c(Cl)cc(F)cc4Cl)n([C@H]4CC[C@@H](C(N)=O)CC4)c3n2)C[C@H]1O [Example 355, (1S,4s)-4-(8-(2,6-dichloro-4-fluorophenylamino)-2-((1R,3R,4R)-3-hydroxy-4-methylcyclohexylamino)-9H-purin-9-yl)cyclohexanecarboxamide]
IC50: > 1000 nM

SMILES: C[C@@H]1CC[C@@H](Nc2ncc3nc(Nc4c(F)cc(Cl)cc4F)n([C@H]4CC[C@@H](C(N)=O)CC4)c3n2)C[C@H]1O [Example 356, (1S,4s)-4-(8-(4-chloro-2,6-difluorophenylamino)-2-((1R,3R,4R)-3-hydroxy-4-methylcyclohexylamino)-9H-purin-9-yl)cyclohexanecarboxamide]
IC50: > 1000 nM

SMILES: C[C@@H]1CC[C@@H](Nc2ncc3nc(Nc4ccc(Cl)c(F)c4F)n([C@H]4CC[C@@H](C(N)=O)CC4)c3n2)C[C@H]1O [Example 357, (1S,4s)-4-(8-(4-chloro-2,3-difluorophenylamino)-2-((1R,3R,4R)-3-hydroxy-4-methylcyclohexylamino)-9H-purin-9-yl)cyclohexanecarboxamide]
IC50: > 1000 nM

SMILES: C[C@@H]1CC[C@@H](Nc2ncc3nc(Nc4c(F)ccc(Cl)c4F)n([C@H]4CC[C@@H](C(N)=O)CC4)c3n2)C[C@H]1O [Example 358, (1S,4s)-4-(8-(3-chloro-2,6-difluorophenylamino)-2-((1R,3R,4R)-3-hydroxy-4-methylcyclohexylamino)-9H-purin-9-yl)cyclohexanecarboxamide]
IC50: > 1000 nM

SMILES: C[C@@H]1CC[C@@H](Nc2ncc3nc(Nc4c(F)ccc(F)c4F)n([C@H]4CC[C@@H](C(N)=O)CC4)c3n2)C[C@H]1O [Example 359, (1S,4s)-4-(2-((1R,3R,4R)-3-hydroxy-4-methylcyclohexylamino)-8-(2,3,6-trifluorophenylamino)-9H-purin-9-yl)cyclohexanecarboxamide]
IC50: > 1000 nM

SMILES: NC(=O)[C@H]1CC[C@@H](n2c(Nc3ccc(Cl)c(F)c3F)nc3cnc(N[C@@H]4CCC[C@H](O)C4)nc32)CC1 [Example 360, (1S,4s)-4-(8-(4-chloro-2,3-difluorophenylamino)-2-((1R,3S)-3-hydroxycyclohexylamino)-9H-purin-9-yl)cyclohexanecarboxamide]
IC50: > 1000 nM

SMILES: NC(=O)[C@H]1CC[C@@H](n2c(Nc3c(F)ccc(Cl)c3F)nc3cnc(N[C@@H]4CCC[C@H](O)C4)nc32)CC1 [Example 362, (1S,4s)-4-(8-(3-chloro-2,6-difluorophenylamino)-2-((1R,3S)-3-hydroxycyclohexylamino)-9H-purin-9-yl)cyclohexanecarboxamide]
IC50: > 1000 nM

SMILES: NC(=O)[C@H]1CC[C@@H](n2c(Nc3cc(F)c(Cl)cc3F)nc3cnc(N[C@@H]4CCC[C@H](O)C4)nc32)CC1 [Example 363, (1S,4s)-4-(8-(4-chloro-2,5-difluorophenylamino)-2-((1R,3S)-3-hydroxycyclohexylamino)-9H-purin-9-yl)cyclohexanecarboxamide]
IC50: > 1000 nM

SMILES: NC(=O)[C@H]1CC[C@@H](n2c(Nc3ccc(F)c(F)c3F)nc3cnc(N[C@@H]4CCC[C@H](O)C4)nc32)CC1 [Example 364, (1S,4s)-4-(2-((1R,3S)-3-hydroxycyclohexylamino)-8-(2,3,4-trifluorophenylamino)-9H-purin-9-yl)cyclohexanecarboxamide]
IC50: > 1000 nM

SMILES: NC(=O)[C@H]1CC[C@@H](n2c(Nc3c(Cl)cccc3Cl)nc3cnc(N[C@H]4CCC[C@@H](O)C4)nc32)CC1 [Example 370, (1R,4s)-4-(8-(2,6-dichlorophenylamino)-2-((1S,3R)-3-hydroxycyclohexylamino)-9H-purin-9-yl)cyclohexanecarboxamide]
IC50: > 1000 nM

SMILES: NC(=O)[C@H]1CC[C@@H](n2c(Nc3c(F)cc(F)cc3Cl)nc3cnc(N[C@H]4CCC[C@@H](O)C4)nc32)CC1 [Example 371, (1R,4s)-4-(8-(2-chloro-4,6-difluorophenylamino)-2-((1S,3R)-3-hydroxycyclohexylamino)-9H-purin-9-yl)cyclohexanecarboxamide]
IC50: > 1000 nM

SMILES: NC(=O)[C@H]1CC[C@@H](n2c(Nc3c(F)cc(Cl)cc3F)nc3cnc(N[C@H]4CCC[C@@H](O)C4)nc32)CC1 [Example 372, (1R,4s)-4-(8-(4-chloro-2,6-difluorophenylamino)-2-((1S,3R)-3-hydroxycyclohexylamino)-9H-purin-9-yl)cyclohexanecarboxamide]
IC50: > 1000 nM

SMILES: NC(=O)[C@H]1CC[C@@H](n2c(Nc3c(Cl)cc(F)cc3Cl)nc3cnc(N[C@H]4CCC[C@@H](O)C4)nc32)CC1 [Example 374, (1R,4s)-4-(8-(2,6-dichloro-4-fluorophenylamino)-2-((1S,3R)-3-hydroxycyclohexylamino)-9H-purin-9-yl)cyclohexanecarboxamide]
IC50: > 1000 nM

SMILES: NC(=O)[C@H]1CC[C@@H](n2c(Nc3ccc(Cl)c(F)c3F)nc3cnc(N[C@H]4CCC[C@@H](O)C4)nc32)CC1 [Example 375, (1R,4s)-4-(8-(4-chloro-2,3-difluorophenylamino)-2-((1S,3R)-3-hydroxycyclohexylamino)-9H-purin-9-yl)cyclohexanecarboxamide]
IC50: > 1000 nM

Other lines, results leading:

IC50: 500 to 1000 nM
SMILES: NC(=O)[C@H]1CC[C@@H](n2c(Nc3c(F)cccc3Cl)nc3cnc(N[C@@H]4CCC[C@H](O)C4)nc32)CC1 [Example 350, (1S,4s)-4-(8-(2-chloro-6-fluorophenylamino)-2-((1R,3S)-3-hydroxycyclohexylamino)-9H-purin-9-yl)cyclohexanecarboxamide]

IC50: 500 to 1000 nM
SMILES: NC(=O)[C@H]1CC[C@@H](n2c(Nc3c(F)cc(Cl)cc3F)nc3cnc(N[C@@H]4CCC[C@H](O)C4)nc32)CC1 [Example 352, (1S,4s)-4-(8-(4-chloro-2,6-difluorophenylamino)-2-((1R,3S)-3-hydroxycyclohexylamino)-9H-purin-9-yl)cyclohexanecarboxamide]

IC50: 250 to 500 nM
SMILES: NC(=O)[C@H]1CC[C@@H](n2c(Nc3c(Cl)cc(Cl)cc3Cl)nc3cnc(N[C@@H]4CCC[C@H](O)C4)nc32)CC1 [Example 353, (1S,4s)-4-(2-((1R,3S)-3-hydroxycyclohexylamino)-8-(2,4,6-trichlorophenylamino)-9H-purin-9-yl)cyclohexanecarboxamide]

IC50: 500 to 1000 nM
SMILES: NC(=O)[C@H]1CC[C@@H](n2c(Nc3c(Cl)cc(F)cc3Cl)nc3cnc(N[C@@H]4CCC[C@H](O)C4)nc32)CC1 [Example 354, (1S,4s)-4-(8-(2,6-dichloro-4-fluorophenylamino)-2-((1R,3S)-3-hydroxycyclohexylamino)-9H-purin-9-yl)cyclohexanecarboxamide]

IC50: < 250 nM
SMILES: NC(=O)[C@H]1CC[C@@H](n2c(Nc3c(F)cc(Cl)cc3Cl)nc3cnc(N[C@@H]4CCC[C@H](O)C4)nc32)CC1 [Example 361, (1S,4s)-4-(8-(2,4-dichloro-6-fluorophenylamino)-2-((1R,3S)-3-hydroxycyclohexylamino)-9H-purin-9-yl)cyclohexanecarboxamide]

IC50: < 250 nM
SMILES: NC(=O)[C@H]1CC[C@@H](n2c(Nc3c(Cl)cc(OC(F)(F)F)cc3Cl)nc3cnc(NC4CCOCC4)nc32)CC1 [Example 365, (1s,4s)-4-(8-(2,6-dichloro-4-(trifluoromethoxy)phenylamino)-2-(tetrahydro-2H-pyran-4-ylamino)-9H-purin-9-yl)cyclohexanecarboxamide]

IC50: < 250 nM
SMILES: C[C@@H](CO)Nc1ncc2nc(Nc3c(Cl)cc(C#N)cc3Cl)n([C@H]3CC[C@@H](C(N)=O)CC3)c2n1 [Example 366, (1R,4s)-4-(8-(2,6-dichloro-4-cyanophenylamino)-2-((S)-1-hydroxypropan-2-ylamino)-9H-purin-9-yl)cyclohexanecarboxamide]

IC50: < 250 nM
SMILES: N#Cc1cc(Cl)c(Nc2nc3cnc(NC4CCCC4)nc3n2[C@H]2CC[C@@H](C(N)=O)CC2)c(Cl)c1 [Example 367, (1s,4s)-4-(2-(cyclopentylamino)-8-(2,6-dichloro-4-cyanophenylamino)-9H-purin-9-yl)cyclohexanecarboxamide]

IC50: 500 to 1000 nM
SMILES: N#Cc1cc(F)c(Nc2nc3cnc(NC4CCC4)nc3n2[C@H]2CC[C@@H](C(N)=O)CC2)c(F)c1 [Example 368, (1s,4s)-4-(8-(4-cyano-2,6-difluorophenylamino)-2-(cyclobutylamino)-9H-purin-9-yl)cyclohexanecarboxamide]

IC50: 250 to 500 nM
SMILES: N#Cc1cc(F)c(Nc2nc3cnc(NC4CCCC4)nc3n2[C@H]2CC[C@@H](C(N)=O)CC2)c(Cl)c1 [Example 369, (1s,4s)-4-(8-(2-chloro-4-cyano-6-fluorophenylamino)-2-(cyclopentylamino)-9H-purin-9-yl)cyclohexanecarboxamide]

IC50: 500 to 1000 nM
SMILES: NC(=O)[C@H]1CC[C@@H](n2c(Nc3c(Cl)cc(Cl)cc3Cl)nc3cnc(N[C@H]4CCC[C@@H](O)C4)nc32)CC1 [Example 373, (1R,4s)-4-(2-((1S,3R)-3-hydroxycyclohexylamino)-8-(2,4,6-trichlorophenylamino)-9H-purin-9-yl)cyclohexanecarboxamide]
